# Reference: patent publication US12428422B2, “Purine derivatives as SIK-3 inhibitors” (RHIZEN PHARMACEUTICALS AG, priority 2020, dated 2025)
# What was measured:
# SIK3 (human) = SIK3 (human) (Homo sapiens, UniProt Q9Y2K2); assay: Enzymatic radiometric assay against human salt-inducible kinase-3 (SIK3); type: biochemical; conditions: at a concentration of 1 μM; read-out: inhibition of SIK-3 activity
# Experimental: Assay 1: Determination of IC50 of Compound M1 Against Human Salt-Inducible Kinase-3 (SIK3) Using an Enzymatic Radiometric Assay
# • SIK3 (human) was incubated with 8 mM MOPS pH 7.0, 0.2 mM EDTA, 100 uM of the peptide […] (Substrate), 10 mM Mg Acetate and [gamma-33P-ATP] (specific activity and concentration as required) in the presence of Compound M1. • The reaction was initiated by the addition of the Mg/ATP mix. • After incubation for 40 minutes at room temperature, the reaction was stopped by the addition of phosphoric acid to a concentration of 0.5%. • 10 μL of the reaction mixture was then spotted onto a P30 filtermat and washed four times for 4 minutes in 0.425% phosphoric acid and once in methanol prior to drying and scintillation counting. • The IC50 value was calculated using GraphPad Prism.
# 6 isoform of PI3K = 6 isoform of PI3K (Homo sapiens, UniProt O00329); conditions: background statement; cited from earlier work
# [1] = Pharmacokinetic evaluation of patient plasma samples from a human clinical trial; type: in vivo; conditions: metabolite is Compound M1
# y isoform of PI3K = y isoform of PI3K (Homo sapiens, UniProt P48736); conditions: background statement; cited from earlier work
# y isoform of PI3K, sequence (P48736 whole entry, canonical isoform): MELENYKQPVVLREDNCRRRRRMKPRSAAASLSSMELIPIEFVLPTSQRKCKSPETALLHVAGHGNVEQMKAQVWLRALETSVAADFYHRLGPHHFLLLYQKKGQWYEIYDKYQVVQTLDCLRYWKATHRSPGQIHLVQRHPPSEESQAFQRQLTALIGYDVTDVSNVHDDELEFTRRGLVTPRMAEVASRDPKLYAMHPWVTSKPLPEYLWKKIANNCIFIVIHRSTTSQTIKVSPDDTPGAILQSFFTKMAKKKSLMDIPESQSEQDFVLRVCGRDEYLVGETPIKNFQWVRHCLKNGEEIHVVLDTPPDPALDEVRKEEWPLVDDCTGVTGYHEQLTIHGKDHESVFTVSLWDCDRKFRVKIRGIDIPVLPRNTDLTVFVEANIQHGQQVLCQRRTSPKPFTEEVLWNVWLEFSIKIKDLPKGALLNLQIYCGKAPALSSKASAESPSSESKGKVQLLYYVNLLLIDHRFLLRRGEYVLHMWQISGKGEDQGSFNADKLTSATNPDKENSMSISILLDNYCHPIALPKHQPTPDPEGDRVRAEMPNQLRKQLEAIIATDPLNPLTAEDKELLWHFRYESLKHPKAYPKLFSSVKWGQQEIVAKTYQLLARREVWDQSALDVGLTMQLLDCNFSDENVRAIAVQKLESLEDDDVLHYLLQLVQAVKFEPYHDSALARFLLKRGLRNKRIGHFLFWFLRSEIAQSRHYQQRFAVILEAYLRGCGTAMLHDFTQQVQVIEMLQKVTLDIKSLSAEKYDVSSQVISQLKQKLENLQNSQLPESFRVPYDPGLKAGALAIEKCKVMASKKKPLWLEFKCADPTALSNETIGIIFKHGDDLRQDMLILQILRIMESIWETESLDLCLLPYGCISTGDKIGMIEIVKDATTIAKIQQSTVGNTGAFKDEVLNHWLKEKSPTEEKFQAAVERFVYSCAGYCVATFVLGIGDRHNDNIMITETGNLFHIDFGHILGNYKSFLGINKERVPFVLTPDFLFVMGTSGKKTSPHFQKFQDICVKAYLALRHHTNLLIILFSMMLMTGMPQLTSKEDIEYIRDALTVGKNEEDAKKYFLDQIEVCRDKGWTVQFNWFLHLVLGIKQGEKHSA
# SIK3 (human), sequence (Q9Y2K2 whole entry): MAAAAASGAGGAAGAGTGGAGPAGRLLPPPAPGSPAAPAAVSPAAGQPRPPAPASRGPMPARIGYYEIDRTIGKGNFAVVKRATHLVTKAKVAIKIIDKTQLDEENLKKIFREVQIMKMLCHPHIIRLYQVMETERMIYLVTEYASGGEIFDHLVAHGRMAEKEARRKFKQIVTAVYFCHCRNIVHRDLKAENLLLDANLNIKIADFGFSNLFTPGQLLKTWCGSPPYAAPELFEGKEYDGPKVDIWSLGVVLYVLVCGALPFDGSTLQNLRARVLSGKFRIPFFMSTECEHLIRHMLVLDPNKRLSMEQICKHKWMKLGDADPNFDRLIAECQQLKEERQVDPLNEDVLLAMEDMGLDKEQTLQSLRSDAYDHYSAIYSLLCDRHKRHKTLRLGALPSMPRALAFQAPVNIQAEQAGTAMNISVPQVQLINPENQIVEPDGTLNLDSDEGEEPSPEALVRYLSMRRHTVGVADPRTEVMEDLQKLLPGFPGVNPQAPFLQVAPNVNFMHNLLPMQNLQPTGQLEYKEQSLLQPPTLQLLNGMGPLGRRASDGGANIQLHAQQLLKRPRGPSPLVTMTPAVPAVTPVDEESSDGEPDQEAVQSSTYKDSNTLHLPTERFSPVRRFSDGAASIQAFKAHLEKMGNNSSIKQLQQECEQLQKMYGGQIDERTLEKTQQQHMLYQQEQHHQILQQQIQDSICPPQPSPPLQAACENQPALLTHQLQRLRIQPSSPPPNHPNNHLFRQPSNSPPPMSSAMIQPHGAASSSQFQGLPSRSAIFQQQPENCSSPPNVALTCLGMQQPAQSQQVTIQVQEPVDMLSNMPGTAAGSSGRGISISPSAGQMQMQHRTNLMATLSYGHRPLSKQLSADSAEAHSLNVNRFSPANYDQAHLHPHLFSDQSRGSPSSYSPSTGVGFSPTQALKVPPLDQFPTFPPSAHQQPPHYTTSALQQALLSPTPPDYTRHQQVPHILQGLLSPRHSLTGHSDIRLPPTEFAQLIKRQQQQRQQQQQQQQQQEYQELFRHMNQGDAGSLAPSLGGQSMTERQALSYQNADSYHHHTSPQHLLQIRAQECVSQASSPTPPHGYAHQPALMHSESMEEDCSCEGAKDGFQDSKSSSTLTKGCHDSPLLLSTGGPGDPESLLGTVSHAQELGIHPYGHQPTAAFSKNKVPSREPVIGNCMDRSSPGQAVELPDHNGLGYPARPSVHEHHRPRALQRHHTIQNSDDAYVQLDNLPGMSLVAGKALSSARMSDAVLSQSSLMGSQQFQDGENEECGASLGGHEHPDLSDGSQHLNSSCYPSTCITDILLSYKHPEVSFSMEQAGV
# 6 isoform of PI3K, sequence (O00329 whole entry, canonical isoform): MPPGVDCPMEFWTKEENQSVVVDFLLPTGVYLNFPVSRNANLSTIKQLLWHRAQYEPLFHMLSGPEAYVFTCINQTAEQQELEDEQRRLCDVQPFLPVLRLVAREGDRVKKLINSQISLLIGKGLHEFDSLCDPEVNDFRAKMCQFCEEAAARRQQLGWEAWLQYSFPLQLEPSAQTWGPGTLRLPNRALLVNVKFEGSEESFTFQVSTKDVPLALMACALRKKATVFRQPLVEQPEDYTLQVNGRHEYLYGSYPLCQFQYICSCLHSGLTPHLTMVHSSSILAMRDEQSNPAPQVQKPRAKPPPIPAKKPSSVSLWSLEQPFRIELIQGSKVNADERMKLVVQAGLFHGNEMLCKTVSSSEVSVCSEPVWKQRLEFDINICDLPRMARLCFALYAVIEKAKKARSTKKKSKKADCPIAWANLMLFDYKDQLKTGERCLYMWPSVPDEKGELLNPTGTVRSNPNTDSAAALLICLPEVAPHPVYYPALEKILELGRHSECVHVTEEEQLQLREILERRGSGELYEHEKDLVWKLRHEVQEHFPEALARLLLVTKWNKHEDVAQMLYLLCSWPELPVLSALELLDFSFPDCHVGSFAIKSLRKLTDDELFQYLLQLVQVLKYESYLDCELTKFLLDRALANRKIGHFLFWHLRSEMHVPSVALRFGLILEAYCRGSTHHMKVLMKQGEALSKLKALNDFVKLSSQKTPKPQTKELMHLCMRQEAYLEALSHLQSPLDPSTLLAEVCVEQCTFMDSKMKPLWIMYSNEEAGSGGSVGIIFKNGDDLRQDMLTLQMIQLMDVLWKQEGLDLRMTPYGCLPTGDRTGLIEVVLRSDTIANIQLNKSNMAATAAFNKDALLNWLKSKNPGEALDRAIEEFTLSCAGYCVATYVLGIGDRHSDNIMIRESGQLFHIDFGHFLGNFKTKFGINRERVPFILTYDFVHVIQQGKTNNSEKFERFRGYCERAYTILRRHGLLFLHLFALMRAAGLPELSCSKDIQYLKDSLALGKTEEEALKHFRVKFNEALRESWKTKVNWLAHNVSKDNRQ
# 6 isoform of PI3K, sequence (P27986 whole entry partner, canonical isoform): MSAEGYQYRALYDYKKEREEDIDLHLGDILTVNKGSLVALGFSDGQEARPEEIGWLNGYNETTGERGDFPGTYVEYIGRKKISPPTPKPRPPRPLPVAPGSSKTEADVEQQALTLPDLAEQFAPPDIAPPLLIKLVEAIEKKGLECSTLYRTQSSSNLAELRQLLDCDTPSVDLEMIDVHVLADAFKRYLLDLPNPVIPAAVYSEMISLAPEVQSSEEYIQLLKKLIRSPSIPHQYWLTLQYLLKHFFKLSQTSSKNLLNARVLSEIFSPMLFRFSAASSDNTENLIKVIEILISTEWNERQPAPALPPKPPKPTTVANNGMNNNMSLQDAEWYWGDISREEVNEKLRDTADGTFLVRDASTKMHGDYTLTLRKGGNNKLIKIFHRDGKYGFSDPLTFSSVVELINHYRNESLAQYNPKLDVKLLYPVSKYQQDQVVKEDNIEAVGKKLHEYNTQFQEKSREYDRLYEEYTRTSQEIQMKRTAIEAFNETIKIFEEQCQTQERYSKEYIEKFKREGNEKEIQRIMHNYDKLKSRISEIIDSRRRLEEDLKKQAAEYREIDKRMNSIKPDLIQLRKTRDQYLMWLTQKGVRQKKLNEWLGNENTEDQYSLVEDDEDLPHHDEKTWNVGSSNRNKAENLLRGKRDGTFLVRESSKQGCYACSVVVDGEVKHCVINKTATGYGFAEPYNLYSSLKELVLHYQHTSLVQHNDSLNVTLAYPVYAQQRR
SMILES,inhibition at 1 µM (SIK3 (human)) [%],potency against the 6 isoform of PI3K (6 isoform of PI3K),metabolism in patients (metabolite formation) [1],potency against the 7 isoform of PI3K (y isoform of PI3K)
"CC[C@@H](Nc1ncnc2[nH]c(O)nc12)c1oc2ccccc2c(=O)c1-c1cccc(F)c1 [Compound M2, (R)-3-(3-fluorophenyl)-2-(1-((8-hydroxy-9H-purin-6-yl)amino)propyl)-4H-chromen-4-one]",100,–,–,–
"CC[C@H](Nc1ncnc2nc[nH]c12)c1oc2ccccc2c(=O)c1-c1cccc(F)c1 [Tenalisib, 3-(3-fluorophenyl)-2-[(1S)-1-(7H-purin-6-ylamino)propyl]-chromen-4-one]",–,nanomolar potency,underwent metabolism to produce in some subjects,nanomolar potency
